Data reported in patent US11090304B2 (Amgen Inc., priority 2018, dated 2021).
pIC50: −log10 of the molar value.

Assays:
[1] = target: GDP-bound KRAS protein (aa 1-169), containing both G12C and C118A amino acid substitutions (Homo sapiens, UniProt P01116, C118A/G12C); experiment: Coupled nucleotide exchange assay (SOS-mediated, AlphaScreen); assay type: biochemical; details: 5 min compound pre-incubation
[2] = test system: Phosphorylation of ERK1/2 in MIA PaCa-2 cells; experiment: Phospho-ERK1/2 MSD assay in MIA PaCa-2 cells; assay type: cell-based; details: Homo sapiens, MIA PaCa-2, 2 h, read-out: p-ERK IC50 (2 h; MIA PaCa-2), 2 h compound treatment
Outline: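 IC50 comes from a 4-parameter logistic fit of MSD phospho-ERK1/2 signal in lysates. Before lysis, MIA PaCa-2 or A549 cells were exposed to titrated compound for 2 or 4 h at 37 °C, followed by a 10 min 10 ng/mL EGF stimulus.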

Chain of GDP-bound KRAS protein (aa 1-169), containing both G12C and C118A amino acid substitutions (P01116 1-169 isoform P01116-2 G12C/C118A): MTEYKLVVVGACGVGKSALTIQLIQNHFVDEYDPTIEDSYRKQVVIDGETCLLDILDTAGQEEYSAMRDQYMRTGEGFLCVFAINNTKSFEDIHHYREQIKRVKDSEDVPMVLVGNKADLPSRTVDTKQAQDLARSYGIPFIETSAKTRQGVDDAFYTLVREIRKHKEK

Coupled exchange IC50 (5 min) [1]	pIC50 [2]	Compound
0.221 | nda μM	6.97	C=CC(=O)N1CCN(c2nc(=O)n(-c3c(C(C)C)ncnc3C(C)C)c3nc(-c4ccccc4F)c(F)cc23)[C@@H](C)C1 [Example 57-5, 1-(4,6-di(2-propanyl)-5-pyrimidinyl)-6-fluoro-7-(2-fluorophenyl)-4-((2S)-2-methyl-4-(2-propenoyl)-1-piperazinyl)pyrido[2,3-d]pyrimidin-2(1H)-one]
0.752 | nda μM	6.62	C=CC(=O)N1CCN(c2nc(=O)n(-c3ncccc3C(C)C)c3nc(-c4ccccc4F)c(F)cc23)[C@@H](C)C1 [Example 57-9, 6-fluoro-7-(2-fluorophenyl)-4-((2S)-2-methyl-4-(2-propenoyl)-1-piperazinyl)-1-(3-(2-propanyl)-2-pyridinyl)pyrido[2.3-d]pyrimidin-2(1H)-one]
0.472 | nda μM	6.27	C=CC(=O)N1CCN(c2nc(=O)n(-c3scnc3C(C)C)c3nc(-c4ccccc4F)c(F)cc23)[C@@H](C)C1 [Example 57-12, 6-fluoro-7-(2-fluorophenyl)-4-((2S)-2-methyl-4-(2-propenoyl)-1-piperazinyl)-1-(4-(2-propanyl)-1,3-thiazol-5-yl)pyrido[2,3-d]pyrimidin-2(1H)-one]
0.261 | nda μM	6.74	C=CC(=O)N1CCN(c2nc(=O)n(-c3c(C(F)(F)F)ccnc3C(C)C)c3nc(-c4c(O)cccc4F)c(F)cc23)[C@@H](C)C1 [Example 58-3, 6-fluoro-7-(2-fluoro-6-hydroxyphenyl)-4-((2S)-2-methyl-4-(2-propenoyl)-1-piperazinyl)-1-(2-(2-propanyl)-4-(trifluoromethyl)-3-pyridinyl)pyrido[2,3-d]pyrimidin-2(1H)-one]
0.395 | nda μM	6.74	C=CC(=O)N1CCN(c2nc(=O)n(-c3c(C)ccnc3C(C)C)c3nc(-c4ccccc4F)c(F)cc23)[C@@H](C)C1 [Example 58-4, 6-fluoro-7-(2-fluorophenyl)-1-(4-methyl-2-(2-propanyl)-3-pyridinyl)-4-((2S)-2-methyl-4-(2-propenoyl)-1-piperazinyl)pyrido[2,3-d]pyrimidin-2(1H)-one]
0.484 | nda μM	5.70	C=CC(=O)N1CCN(c2nc(=O)n(-c3c(C)ccnc3C(C)C)c3nc(-c4cc(O)ccc4F)c(F)cc23)[C@@H](C)C1 [Example 58-5, 6-fluoro-7-(2-fluoro-5-hydroxyphenyl)-1-(4-methyl-2-(2-propanyl)-3-pyridinyl)-4-((2S)-2-methyl-4-(2-propenoyl)-1-piperazinyl)pyrido[2,3-d]pyrimidin-2(1H)-one]
0.623 | nda μM	6.07	C=CC(=O)N1CCN(c2nc(=O)n(-c3c(C)ccnc3C(C)C)c3nc(-c4cc(N)ccc4F)c(F)cc23)[C@@H](C)C1 [Example 58-6]
0.445 | nda μM	6.36	C=CC(=O)N1CCN(c2nc(=O)n(-c3c(C)ccnc3C(C)C)c3nc(-c4ccc(F)cc4F)c(F)cc23)[C@@H](C)C1 [Example 58-10, 7-(2,4-difluorophenyl)-6-fluoro-1-(4-methyl-2-(2-propanyl)-3-pyridinyl)-4-((2S)-2-methyl-4-(2-propenoyl)-1-piperazinyl)pyrido[2,3-d]pyrimidin-2(1H)-one]
0.953 | nda μM	6.29	C=CC(=O)N1CCN(c2nc(=O)n(-c3c(C)ncnc3C(C)C)c3nc(-c4ccccc4F)c(F)cc23)[C@@H](C)C1 [Example 58-12, 6-fluoro-7-(2-fluorophenyl)-1-(4-methyl-6-(2-propanyl)-5-pyrimidinyl)-4-((2S)-2-methyl-4-(2-propenoyl)-1-piperazinyl)pyrido[2,3-d]pyrimidin-2(1H)-one]
0.553 | nda μM	6.25	C=CC(=O)N1CCN(c2nc(=O)n(-c3c(C(C)C)ccnc3C)c3nc(-c4ccccc4F)c(F)cc23)[C@@H](C)C1 [Example 58-16, 6-fluoro-7-(2-fluorophenyl)-1-(2-methyl-4-(2-propanyl)-3-pyridinyl)-4-((2S)-2-methyl-4-(2-propenoyl)-1-piperazinyl)pyrido[2,3-d]pyrimidin-2(1H)-one]
0.521 | nda μM	6.21	C=CC(=O)N1CCN(c2nc(=O)n(-c3c(F)cccc3C(C)C)c3nc(-c4ccccc4F)c(F)cc23)[C@@H](C)C1 [Example 59-3, 6-fluoro-7-(2-fluorophenyl)-1-(2-fluoro-6-(2-propanyl)phenyl)-4-((2S)-2-methyl-4-(2-propenoyl)-1-piperazinyl)pyrido[2,3-d]pyrimidin-2(1H)-one]

Second part, the compound before the results:

Compound	Coupled exchange IC50 (5 min) [1]	pIC50 [2]
C=CC(=O)N1CCN(c2nc(=O)n(-c3ncccc3C(C)C)c3nc(-c4c(O)cccc4F)c(F)cc23)[C@@H](C)C1 [Example 57-10, 6-fluoro-7-(2-fluoro-6-hydroxyphenyl)-4-((2S)-2-methyl-4-(2-propenoyl)-1-piperazinyl)-1-(3-(2-propanyl)-2-pyridinyl)pyrido[2,3-d]pyrimidin-2(1H)-one]	0.452 | nda μM	6.98
C=CC(=O)N1CCN(c2nc(=O)n(-c3scnc3C(C)C)c3nc(-c4c(O)cccc4F)c(F)cc23)[C@@H](C)C1 [Example 57-11, 6-fluoro-7-(2-fluoro-6-hydroxyphenyl)-4-((2S)-2-methyl-4-(2-propenoyl)-1-piperazinyl)-1-(4-(2-propanyl)-1,3-thiazol-5-yl)pyrido[2,3-d]pyrimidin-2(1H)-one]	0.24 | nda μM	6.58
C=CC(=O)N1CCN(c2nc(=O)n(-c3c(C)cccc3C(C)(C)C)c3nc(-c4c(O)cccc4F)c(F)cc23)[C@@H](C)C1 [Example 57-17, 6-fluoro-7-(2-fluoro-6-hydroxyphenyl)-1-(2-methyl-6-(2-methyl-2-propanyl)phenyl)-4-((2S)-2-methyl-4-(2-propenoyl)-1-piperazinyl)pyrido[2,3-d]pyrimidin-2(1H)-one]	0.574 | nda μM	5.84
C=CC(=O)N1CCN(c2nc(=O)n(-c3ccccc3C(C)(C)C)c3nc(-c4c(O)cccc4F)c(F)cc23)[C@@H](C)C1 [Example 58-1, 6-Fluoro-7-(2-fluoro-6-hydroxyphenyl)-1-(2-(2-methyl-2-propanyl)phenyl)-4-((2S)-2-methyl-4-(2-propenoyl)-1-piperazinyl)pyrido[2,3-d]pyrimidin-2(1H)-one]	0.661 | nda μM	6.16
C=CC(=O)N1CCN(c2nc(=O)n(-c3c(C)ccnc3C(C)C)c3nc(-c4cc(O)cc(Cl)c4Cl)c(F)cc23)[C@@H](C)C1 [Example 58-7, 7-(2,3-dichloro-5-hydroxyphenyl)-6-fluoro-1-(4-methyl-2-(2-propanyl)-3-pyridinyl)-4-((2S)-2-methyl-4-(2-propenoyl)-1-piperazinyl)pyrido[2,3-d]pyrimidin-2(1H)-one]	0.072 | nda μM	5.70
C=CC(=O)N1CCN(c2nc(=O)n(-c3c(C)ccnc3C(C)C)c3nc(-c4cc(N)ccc4Cl)c(F)cc23)[C@@H](C)C1 [Example 58-8, 7-(5-amino-2-chlorophenyl)-6-fluoro-1-(4-methyl-2-(2-propanyl)-3-pyridinyl)-4-((2S)-2-methyl-4-(2-propenoyl)-1-piperazinyl)pyrido[2,3-d]pyrimidin-2(1H)-one]	0.393 | nda μM	6.36
C=CC(=O)N1CCN(c2nc(=O)n(-c3c(C)ccnc3C(C)C)c3nc(-c4c(O)cccc4Cl)c(F)cc23)[C@@H](C)C1 [Example 58-9, 7-(2-chloro-6-hydroxyphenyl)-6-fluoro-1-(4-methyl-2-(2-propanyl)-3-pyridinyl)-4-((2S)-2-methyl-4-(2-propenoyl)-1-piperazinyl)pyrido[2,3-d]pyrimidin-2(1H)-one]	0.095 | nda μM	6.66
C=CC(=O)N1CCN(c2nc(=O)n(-c3c(C)cccc3C3CC3)c3nc(-c4c(O)cccc4F)c(F)cc23)[C@@H](C)C1 [Example 58-13, 1-(2-cyclopropyl-6-methylphenyl)-6-fluoro-7-(2-fluoro-6-hydroxyphenyl)-4-((2S)-2-methyl-4-(2-propenoyl)-1-piperazinyl)pyrido[2,3-d]pyrimidin-2(1H)-one]	0.809 | nda μM	6.58
C=CC(=O)N1CCN(c2nc(=O)n(-c3c(C4CC4)ccnc3C)c3nc(-c4c(O)cccc4F)c(F)cc23)[C@@H](C)C1 [Example 58-19, 1-(4-cyclopropyl-2-methyl-3-pyridinyl)-6-fluoro-7-(2-fluoro-6-hydroxyphenyl)-4-((2S)-2-methyl-4-(2-propenoyl)-1-piperazinyl)pyrido[2,3-d]pyrimidin-2(1H)-one]	0.44 | nda μM	6.02
C=CC(=O)N1CCN(c2nc(=O)n(-c3c(CC)ncnc3CC)c3nc(-c4c(O)cccc4F)c(F)cc23)[C@@H](C)C1 [Example 58-23, 1-(4,6-diethyl-5-pyrimidinyl)-6-fluoro-7-(2-fluoro-6-hydroxyphenyl)-4-((2S)-2-methyl-4-(2-propenoyl)-1-piperazinyl)pyrido[2,3-d]pyrimidin-2(1H)-one]	0.732 | nda μM	6.05
C=CC(=O)N1CCN(c2nc(=O)n(-c3c(F)cccc3C(C)C)c3nc(-c4c(O)cccc4F)c(F)cc23)[C@@H](C)C1 [Example 59-2, 6-fluoro-7-(2-fluoro-6-hydroxyphenyl)-1-(2-fluoro-6-(2-propanyl)phenyl)-4-((2S)-2-methyl-4-(2-propenoyl)-1-piperazinyl)pyrido[2,3-d]pyrimidin-2(1H)-one]	0.257 | nda μM	6.13
